Experimental data as given in ChEMBL document CHEMBL4190365, “Synthesis and antiproliferative properties of new hydrophilic esters of triterpenic acids” (Eur J Med Chem, 2017).
Active and inactive are the calls of the source. The rule behind the calls is not given here.

Assays:
G-361 [1] = test: Induction of cell cycle arrest in human G361 cells assessed as increase in accumulation at subG1 phase at 10 uM incubated for 24 hrs by propidium iodide staining based flow cytometry; assay type: functional
G-361 [2] = test: Induction of cell cycle arrest in human G361 cells assessed as reduction in accumulation at G2M phase at 1 uM incubated for 24 hrs by propidium iodide staining based flow cytometry; assay type: functional
G-361 [3] = test: Induction of apoptosis in human G361 cells assessed as induction of caspase-3 expression at 10 uM incubated for 24 hrs by Western blot method; assay type: functional, cell-based
G-361 [4] = test: Induction of cell cycle arrest in human G361 cells assessed as reduction in accumulation at G2M phase at 10 uM incubated for 24 hrs by propidium iodide staining based flow cytometry; assay type: functional
G-361 [5] = test: Induction of cell cycle arrest in human G361 cells assessed as increase in accumulation at subG1 phase at 1 uM incubated for 24 hrs by propidium iodide staining based flow cytometry; assay type: functional
HeLa = test: Cytotoxicity in human HeLa cells assessed as reduction in cell viability incubated for 72 hrs by calcein AM cytotoxicity assay; assay type: functional, cell-based; settings: Homo sapiens, HeLa, 72 h
G-361 [6] = test: Induction of apoptosis in human G361 cells assessed as induction of caspase-7 degradation in to cleaved fragments at 1 uM incubated for 24 hrs by Western blot method; assay type: functional, cell-based
CCRF-CEM = test: Cytotoxicity in human CEM cells assessed as reduction in cell viability incubated for 72 hrs by calcein AM cytotoxicity assay; assay type: functional, cell-based
MCF7 = test: Cytotoxicity in human MCF7 cells assessed as reduction in cell viability incubated for 72 hrs by calcein AM cytotoxicity assay; assay type: functional, cell-based; settings: Homo sapiens, MCF7, 72 h
G-361 [7] = test: Induction of apoptosis in human G361 cells assessed as induction of caspase-3 expression at 1 uM incubated for 24 hrs by Western blot method; assay type: functional, cell-based
G-361 [8] = test: Induction of apoptosis in human G361 cells assessed as effect on Bcl2 protein levels at 10 uM incubated for 24 hrs by Western blot method; assay type: functional, cell-based
G-361 [9] = test: Induction of apoptosis in human G361 cells assessed as reduction Mcl1 protein levels at 10 uM incubated for 24 hrs by Western blot method; assay type: functional, cell-based
G-361 [10] = test: Induction of cell cycle arrest in human G361 cells assessed as increase in accumulation at G0/G1 phase at 10 uM incubated for 24 hrs by propidium iodide staining based flow cytometry; assay type: functional
G-361 [11] = test: Induction of cell cycle arrest in human G361 cells assessed as increase in accumulation at G0/G1 phase at 1 uM incubated for 24 hrs by propidium iodide staining based flow cytometry; assay type: functional
G-361 [12] = test: Induction of apoptosis in human G361 cells assessed as induction of caspase-7 degradation in to cleaved fragments at 10 uM incubated for 24 hrs by Western blot method; assay type: functional, cell-based
G-361 [13] = test: Cytotoxicity in human G361 cells assessed as reduction in cell viability incubated for 72 hrs by calcein AM cytotoxicity assay; assay type: functional, cell-based; settings: Homo sapiens, G-361, 72 h
G-361 [14] = test: Induction of apoptosis in human G361 cells assessed as effect on Bcl2 protein levels at 1 uM incubated for 24 hrs by Western blot method; assay type: functional, cell-based
G-361 [15] = test: Induction of apoptosis in human G361 cells assessed as reduction Mcl1 protein levels at 1 uM incubated for 24 hrs by Western blot method; assay type: functional, cell-based
BJ = test: Cytotoxicity in human BJ cells assessed as reduction in cell viability incubated for 72 hrs by calcein AM cytotoxicity assay; assay type: functional, cell-based; settings: Homo sapiens, BJ, 72 h
G-361 [16] = test: Induction of apoptosis in human G361 cells assessed as reduction total Rb protein levels at 10 uM incubated for 24 hrs by Western blot method; assay type: functional, cell-based
G-361 [17] = test: Induction of apoptosis in human G361 cells assessed as induction of PARP cleavage at 10 uM incubated for 24 hrs by Western blot method; assay type: functional, cell-based
G-361 [18] = test: Induction of apoptosis in human G361 cells assessed as increase in caspase3/7 activity at 1 uM using Ac-DEVD-AMC substrate incubated for 24 hrs by fluorometric assay relative to untreated control; assay type: functional
G-361 [19] = test: Induction of apoptosis in human G361 cells assessed as increase in caspase3/7 activity at 10 uM using Ac-DEVD-AMC substrate incubated for 24 hrs by fluorometric assay relative to untreated control; assay type: functional

Structure (SMILES)	IC50 (HeLa) [µM]	IC50 (CCRF-CEM; Homo sapiens, CCRF-CEM, 72 h) [µM]	IC50 (MCF7) [µM]	IC50 (G-361 [13]) [µM]	IC50 (BJ) [µM]	also measured
C=C(C)[C@@H]1CC[C@]2(C(=O)O[C@@H]3O[C@H](COC(C)=O)[C@H](OC(C)=O)[C@H](OC(C)=O)[C@H]3OC(C)=O)CC[C@]3(C)[C@H](CC[C@@H]4[C@@]5(C)CC[C@H](O)C(C)(C)[C@@H]5CC[C@]43C)[C@@H]12	3.3	9	2.5	3.4	> 50	Activity (G-361 [1]): Active; Activity (G-361 [2]): Active; Activity (G-361 [3]): inactive; Activity (G-361 [4]): Active; Activity (G-361 [5]): Active; Activity (G-361 [6]): Active; Activity (G-361 [7]): inactive; Activity (G-361 [8]): inactive; Activity (G-361 [9]): Active; Activity (G-361 [10]): Active; Activity (G-361 [11]): Active; Activity (G-361 [12]): Active; Activity (G-361 [14]): inactive; Activity (G-361 [15]): Active; Activity (G-361 [16]): Active; Activity (G-361 [17]): Active; Activity (G-361 [18]): inactive; Activity (G-361 [19]): inactive
CC(=O)O[C@H]1CC[C@]2(C)[C@H]3CC[C@@H]4C5=C(C(C)C)C(=O)C[C@]5(C(=O)OCCN5CCCCC5)CC[C@@]4(C)[C@]3(C)CC[C@H]2C1(C)C [listing 1 of 2 here]						Activity (G-361 [1]): Active; Activity (G-361 [2]): Active; Activity (G-361 [3]): inactive; Activity (G-361 [4]): Active; Activity (G-361 [5]): Active; Activity (G-361 [7]): inactive; Activity (G-361 [8]): inactive; Activity (G-361 [9]): Active; Activity (G-361 [10]): Active; Activity (G-361 [11]): Active; Activity (G-361 [14]): inactive; Activity (G-361 [15]): Active; Activity (G-361 [16]): Active; Activity (G-361 [17]): Active
CC(=O)O[C@H]1CC[C@]2(C)[C@H]3CC[C@@H]4C5=C(C(C)C)C(=O)C[C@]5(C(=O)OCC(=O)OCc5ccccc5)CC[C@@]4(C)[C@]3(C)CC[C@H]2C1(C)C	2.8	6	1.8	1.6	> 50	Activity (G-361 [1]): Active; Activity (G-361 [2]): Active; Activity (G-361 [3]): inactive; Activity (G-361 [4]): Active; Activity (G-361 [5]): Active; Activity (G-361 [6]): Active; Activity (G-361 [7]): inactive; Activity (G-361 [8]): inactive; Activity (G-361 [9]): Active; Activity (G-361 [10]): Active; Activity (G-361 [11]): Active; Activity (G-361 [12]): Active; Activity (G-361 [14]): inactive; Activity (G-361 [15]): Active; Activity (G-361 [16]): Active; Activity (G-361 [17]): Active; fold change (FC) (G-361 [18]): 3
CC(=O)O[C@H]1CC[C@]2(C)[C@H]3CC[C@@H]4C5=C(C(C)C)C(=O)C[C@]5(C(=O)OCCN5CCCCC5)CC[C@@]4(C)[C@]3(C)CC[C@H]2C1(C)C [listing 2 of 2 here]	8.7		7	7	49.1	IC50 (CCRF-CEM; ccrf-cem): 16.2 µM; fold change (FC) (G-361 [19]): <=4
COCCOC(=O)[C@]1(COC(C)=O)CC[C@]2(C)[C@H](CC[C@@H]3[C@@]4(C)CC[C@H](OC(C)=O)C(C)(C)[C@@H]4CC[C@]32C)C1=O	> 50	> 50	> 50	> 50	> 50	
CC(C)[C@@H]1CC[C@]2(C(=O)O[C@@H]3O[C@H](CO)[C@H](O)[C@H](O)[C@H]3O)CC[C@]3(C)[C@H](CC[C@@H]4[C@@]5(C)CC[C@H](O)C(C)(C)[C@@H]5CC[C@]43C)[C@@H]12	> 50	> 50	> 50	> 50	> 50	
CC(=O)O[C@H]1CC[C@]2(C)[C@H]3CC[C@@H]4C5=C(C(C)C)C(=O)C[C@]5(C(=O)O[C@@H]5O[C@H](CO)[C@H](O)[C@H](O)[C@H]5O)CC[C@@]4(C)[C@]3(C)CC[C@H]2C1(C)C	38.8	18.8	37	42.7	48.2	
C=C(C)[C@@H]1CC[C@]2(C(=O)O[C@@H]3O[C@H](CO)[C@H](O)[C@H](O)[C@H]3O)CC[C@]3(C)[C@H](CC[C@@H]4[C@@]5(C)CC[C@H](O)C(C)(C)[C@@H]5CC[C@]43C)[C@@H]12	> 50	> 50	> 50	> 50	> 50	
C=C(C)[C@@H]1CC[C@]2(C(=O)OCC(=O)O)CC[C@]3(C)[C@H](CC[C@@H]4[C@@]5(C)CC[C@H](O)C(C)(C)[C@@H]5CC[C@]43C)[C@@H]12	> 50	> 50	> 50	> 50	> 50	
COCCOCCOC(=O)[C@@]12CC[C@]3(C)[C@H](CC[C@@H]4[C@@]5(C)CC[C@H](OC(C)=O)C(C)(C)[C@@H]5CC[C@]43C)C1=C(C(C)C)C(=O)C2	17.1	17.6	21.9	11.8	> 50	
CC(C)[C@@H]1CC[C@]2(C(=O)O[C@@H]3O[C@H](CO)[C@@H](O)[C@H](O)[C@H]3O)CC[C@]3(C)[C@H](CC[C@@H]4[C@@]5(C)CC[C@H](O)C(C)(C)[C@@H]5CC[C@]43C)[C@@H]12	> 50	> 50	> 50	> 50	> 50	
CC(=O)O[C@H]1CC[C@]2(C)[C@H]3CC[C@@H]4C5=C(C(C)C)C(=O)C[C@]5(C(=O)O[C@@H]5O[C@H](CO)[C@@H](O)[C@H](O)[C@H]5O)CC[C@@]4(C)[C@]3(C)CC[C@H]2C1(C)C	9.3	12.2	6.6	6.7	48.2	
CC(=O)OC[C@@]1(C(=O)OCCN2CCCCC2)CC[C@]2(C)[C@H](CC[C@@H]3[C@@]4(C)CC[C@H](OC(C)=O)C(C)(C)[C@@H]4CC[C@]32C)[C@@H]1O	> 50	> 50	27.2	> 50	> 50	
CC(=O)OC[C@H]1O[C@@H](OC(=O)[C@]23CC[C@@H](C(C)C)[C@@H]2[C@H]2CC[C@@H]4[C@@]5(C)CC[C@H](O)C(C)(C)[C@@H]5CC[C@@]4(C)[C@]2(C)CC3)[C@H](OC(C)=O)[C@@H](OC(C)=O)[C@H]1OC(C)=O	5.1	8.6	2.8	4.7	> 50	
CC(C)[C@@H]1CC[C@]2(C(=O)OCCBr)CC[C@]3(C)[C@H](CC[C@@H]4[C@@]5(C)CC[C@H](O)C(C)(C)[C@@H]5CC[C@]43C)[C@@H]12	21.3	35.4	45.9	43.1	36.7	
C=C(C=O)[C@@H]1CC[C@]2(C(=O)OCCN3CCOCC3)CC[C@]3(C)[C@H](CC[C@@H]4[C@@]5(C)CC[C@H](O)C(C)(C)[C@@H]5CC[C@]43C)[C@@H]12	11	3.8	2.2	5.3	19.2	
